Laboratory results from PMC8161026, “Synthesis and Anticancer Activity Evaluation of 5-[2-Chloro-3-(4-nitrophenyl)-2-propenylidene]-4-thiazolidinones” (Molecules, 2021).

What was measured:
[1] = tested on: KM12; test: cells; conditions: Homo sapiens, KM12, 48 h; for CC50: read-out: LC50
[2] = tested on: NCI-H23; test: cells; conditions: Homo sapiens, NCI-H23, 48 h; for CC50: read-out: LC50
[3] = tested on: 786-0; conditions: 786-0 (Renal Cancer), 48 h, SRB
[4] = tested on: U251; test: cells; conditions: Homo sapiens, U-251, 48 h; for CC50: read-out: LC50
[5] = tested on: HOP-92; test: NCI DTP 60 cell line screen, SRB
[6] = tested on: HCT-116; conditions: HCT-116 (Colon Cancer), 48 h, SRB
[7] = tested on: HOP-62; conditions: HOP-62 (Non-Small Cell Lung Cancer), 48 h, SRB
[8] = tested on: HCT-116; test: cells; conditions: Homo sapiens, HCT-116, 48 h; for CC50: read-out: LC50
[9] = tested on: SNB-19; test: NCI DTP 60 cell line screen, SRB; conditions: for GI50 / CC50: Homo sapiens, SNB-19, 48 h; for CC50: read-out: LC50; for TGI: SNB-19 (CNS Cancer), 48 h, SRB
[10] = tested on: T-47D; conditions: T-47D (Breast Cancer), 48 h, SRB
[11] = tested on: EKVX; test: cells; conditions: Homo sapiens, 48 h; for CC50: read-out: LC50
[12] = tested on: CNS Cancer subpanel; test: cells; conditions: for GI50 / CC50: Homo sapiens; for GI50: read-out: MG_MID, GI50; for CC50: read-out: MG_MID, LC50; for SI (selectivity index), GI50 / SI (selectivity index), LC50 / SI (selectivity index), TGI: full panel MG_MID / CNS Cancer subpanel MG_MID
Procedure: (§1) At the first stage of biological activity study, the antitumor activity screening of the selected compounds 2b, 2c, 2f, 2h, and 2j was performed according to the NCI DTP (USA) standard protocol at the concentrations ranging from 10^−4 to 10^−8 M toward 60 tumor cell lines. The percentage of growth was evaluated spectrophotometrically versus controls not treated with test agents after 48 h exposure and using SRB protein assay to estimate cell viability or growth. Dose–response parameters were calculated for each cell line: GI50—molar concentration of the compound that inhibits 50% net cell growth; TGI—molar concentration of the compound leading to the total inhibition; and LC50—molar concentration of the compound leading to 50% net cell death. Furthermore, mean graph midpoints (MG_MID) were calculated for each of the parameters, giving an average activity parameter over all cell lines for the tested compound. For the MG_MID calculation, insensitive cell lines were included with the highest concentration tested.
(§2) The selectivity index (SI) obtained by dividing the full panel MG-MID (mM) of the tested compound by their individual subpanel MG-MID (mM) was considered as a measure of selectivity of anticancer activity (Table 3).
(§3) Primary anticancer assay was performed on a panel of approximately sixty human tumor cell lines derived from nine neoplastic diseases, in accordance with the protocol of the Drug Evaluation Branch, National Cancer Institute, Bethesda. Tested compounds were added to the culture at a single concentration (10^−5 M) and the cultures were incubated for 48 h. End point determinations were made with a protein binding dye, sulforhodamine B (SRB). […] The percentage growth was evaluated spectrophotometrically versus controls not treated with test agents.
(§4) Dose–response parameters (GI50, TGI, LC50) were calculated for each compound. […] The drug concentration resulting in total growth inhibition (TGI) was calculated from Ti = Tz. The LC50 (concentration of drug resulting in a 50% reduction in the measured protein at the end of the drug treatment as compared to that at the beginning) indicating a net loss of cells following treatment was calculated from [(Ti − Tz)/Tz] × 100 = −50 (2). Values were calculated for each of these parameters if the level of activity was reached; however, if the effect was not reached or was excessive, the value for that parameter was expressed as more or less than the maximum or minimum concentration tested.

[13] = tested on: Ovarian Cancer subpanel; test: cells; conditions: for GI50 / CC50: Homo sapiens; for GI50: read-out: MG_MID, GI50; for CC50: read-out: MG_MID, LC50; for MG_MID, TGI: Ovarian Cancer panel mean; for SI (selectivity index), GI50 / SI (selectivity index), LC50 / SI (selectivity index), TGI: full panel MG_MID / Ovarian Cancer subpanel MG_MID
Procedure: as §1, §2, §3, §4

[14] = tested on: Leukemia subpanel; test: cells; conditions: for GI50 / CC50: Homo sapiens; for GI50: read-out: MG_MID, GI50; for CC50: read-out: MG_MID, LC50; for MG_MID, TGI: Leukemia panel mean; for SI (selectivity index), GI50 / SI (selectivity index), LC50 / SI (selectivity index), TGI: full panel MG_MID / Leukemia subpanel MG_MID
Procedure: as §1, §2, §3, §4

[15] = tested on: Melanoma subpanel; test: cells; conditions: for GI50 / CC50: Homo sapiens; for GI50: read-out: MG_MID, GI50; for CC50: read-out: MG_MID, LC50; for MG_MID, TGI: Melanoma panel mean; for SI (selectivity index), GI50 / SI (selectivity index), LC50 / SI (selectivity index), TGI: full panel MG_MID / Melanoma subpanel MG_MID
Procedure: as §1, §2, §3, §4

[16] = tested on: Renal Cancer subpanel; test: cells; conditions: for GI50 / CC50: Homo sapiens; for GI50: read-out: MG_MID, GI50; for CC50: read-out: MG_MID, LC50; for MG_MID, TGI: Renal Cancer panel mean; for SI (selectivity index), GI50 / SI (selectivity index), LC50 / SI (selectivity index), TGI: full panel MG_MID / Renal Cancer subpanel MG_MID
Procedure: as §1, §2, §3, §4

[17] = tested on: Non-Small Cell Lung Cancer subpanel; test: cells; conditions: for GI50 / CC50: Homo sapiens; for GI50: read-out: MG_MID, GI50; for CC50: read-out: MG_MID, LC50; for MG_MID, TGI: Non-Small Cell Lung Cancer panel mean; for SI (selectivity index), GI50 / SI (selectivity index), LC50 / SI (selectivity index), TGI: full panel MG_MID / Non-Small Cell Lung Cancer subpanel MG_MID
Procedure: as §1, §2, §3, §4

[18] = tested on: Colon Cancer subpanel; test: cells; conditions: for MG_MID, TGI: Colon Cancer panel mean; for GI50 / CC50: Homo sapiens; for GI50: read-out: MG_MID, GI50; for CC50: read-out: MG_MID, LC50; for SI (selectivity index), GI50 / SI (selectivity index), LC50 / SI (selectivity index), TGI: full panel MG_MID / Colon Cancer subpanel MG_MID
Procedure: as §1, §2, §3, §4

[19] = tested on: Prostate Cancer subpanel; test: cells; conditions: for GI50: read-out: MG_MID, GI50; for SI (selectivity index), GI50 / SI (selectivity index), LC50 / SI (selectivity index), TGI: full panel MG_MID / Prostate Cancer subpanel MG_MID
Procedure: as §1, §2, §3, §4

[20] = tested on: Breast Cancer subpanel; test: cells; conditions: for MG_MID, TGI: Breast Cancer panel mean; for GI50 / CC50: Homo sapiens; for GI50: read-out: MG_MID, GI50; for CC50: read-out: MG_MID, LC50; for SI (selectivity index), GI50 / SI (selectivity index), LC50 / SI (selectivity index), TGI: full panel MG_MID / Breast Cancer subpanel MG_MID
Procedure: as §1, §2, §3, §4

[21] = tested on: SNB-75; conditions: SNB-75 (CNS Cancer), 48 h, SRB

## O=C(O)C(Cc1ccccc1)N1C(=O)/C(=C/C(Cl)=C/c2ccc([N+](=O)[O-])cc2)SC1=S (stereo not drawn) [Compound 2j, 2-{5-[(Z,2Z)-2-Chloro-3-(4-nitrophenyl)-2-propenylidene]-4-oxo-2-thioxothiazolidin-3-yl}-3-phenylpropanoic acid]
[1]
  GI50: 2.06 µM
  CC50: 9.16 µM
[2]
  GI50: 2.13 µM
  CC50: > 100 µM
[3]
  TGI: 5.01 µM
[4]
  GI50: 1.72 µM
  CC50: 7.21 µM
[5]; HOP-92 (Non-Small Cell Lung Cancer), 48 h, SRB
  TGI: 5.71 µM
[5]; Homo sapiens, HOP-92, 48 h
  GI50: 2.36 µM
[5]; Homo sapiens, HOP-92, 48 h, read-out: LC50
  CC50: > 100 µM
[6]
  TGI: 5.47 µM
[7]
  TGI: 6.75 µM
[8]
  GI50: 2.01 µM
  CC50: 56.7 µM
[9]
  GI50: 1.85 µM
  CC50: > 100 µM
  TGI: > 100 µM
[10]
  TGI: 3.71 µM
[11]
  GI50: 2.59 µM
  CC50: > 100 µM
[12]
  GI50: 2.18 µM
  CC50: 7.21 µM
  SI (selectivity index), GI50: 1.88
  SI (selectivity index), LC50: 10.25
  SI (selectivity index), TGI: 11.53
[13]
  GI50: 3 µM
  CC50: 84.5 µM
  MG_MID, TGI: 68.6 µM
  SI (selectivity index), GI50: 1.36
  SI (selectivity index), LC50: 0.87
  SI (selectivity index), TGI: 0.59
[14]; GI50 (normal blood lymphocyte)/GI50 (Leukemia Panel)
  TI (Therapeutic Index): 16.60
[14]
  GI50: 2.95 µM
  CC50: > 100 µM
  MG_MID, TGI: >100 µM
  SI (selectivity index), GI50: 1.39
  SI (selectivity index), LC50: <0.74
  SI (selectivity index), TGI: <0.41
[15]
  GI50: 2 µM
  CC50: 50.6 µM
  MG_MID, TGI: 17.9 µM
  SI (selectivity index), GI50: 2.05
  SI (selectivity index), LC50: 1.46
  SI (selectivity index), TGI: 2.27
[16]
  GI50: 2.03 µM
  CC50: 42.6 µM
  MG_MID, TGI: 27.8 µM
  SI (selectivity index), GI50: 2.01
  SI (selectivity index), LC50: 1.73
  SI (selectivity index), TGI: 1.46
[17]
  GI50: 13.1 µM
  CC50: 92.9 µM
  MG_MID, TGI: 36.9 µM
  SI (selectivity index), GI50: 0.31
  SI (selectivity index), LC50: 0.80
  SI (selectivity index), TGI: 1.10
[18]
  MG_MID, TGI: 18.7 µM
  GI50: 2.19 µM
  CC50: 67.4 µM
  SI (selectivity index), GI50: 1.87
  SI (selectivity index), LC50: 1.10
  SI (selectivity index), TGI: 2.17
[19]; Homo sapiens
  GI50: 2.3 µM
[19]; Homo sapiens, read-out: MG_MID, LC50
  CC50: 55.9 µM
[19]; Prostate Cancer panel mean
  MG_MID, TGI: 6.27 µM
[19]
  SI (selectivity index), GI50: 1.78
  SI (selectivity index), LC50: 1.32
  SI (selectivity index), TGI: 6.48
[20]
  MG_MID, TGI: 37.0 µM
  GI50: 24.6 µM
  CC50: 84.6 µM
  SI (selectivity index), GI50: 0.17
  SI (selectivity index), LC50: 0.87
  SI (selectivity index), TGI: 1.10
[21]
  TGI: 5.37 µM

## O=C1/C(=C/C(Cl)=C/c2ccc([N+](=O)[O-])cc2)SC(=S)N1/N=C\C(Cl)=C\c1ccc([N+](=O)[O-])cc1 [Compound 2c, 5-[(Z,2Z)-2-Chloro-3-(4-nitrophenyl)-2-propenylidene]-3-[(Z,2Z)-2-chloro-3-(4-nitrophenyl)-2-propenylideneamino]-2-thioxo-4-thiazolidinone]
[1]
  GI50: 20.6 µM
  CC50: > 100 µM
[2]
  GI50: 16.6 µM
  CC50: 60.3 µM
[3]
  TGI: 30.7 µM
[4]
  GI50: 8.03 µM
  CC50: 65.8 µM
[6]
  TGI: 6.51 µM
[7]
  TGI: 39.7 µM
[8]
  GI50: 2.73 µM
  CC50: 23.3 µM
[9]
  GI50: 48.3 µM
  CC50: > 100 µM
  TGI: > 100 µM
[10]
  TGI: 65.3 µM
[11]
  GI50: 23.7 µM
  CC50: 96.1 µM
[12]; CNS Cancer panel mean
  MG_MID, TGI: 52.1 µM
[12]
  GI50: 23.4 µM
  CC50: 88.6 µM
  SI (selectivity index), GI50: 0.77
  SI (selectivity index), LC50: 0.92
  SI (selectivity index), TGI: 0.83
[13]
  GI50: 18.2 µM
  CC50: 59 µM
  MG_MID, TGI: 36.2 µM
  SI (selectivity index), GI50: 0.99
  SI (selectivity index), LC50: 1.38
  SI (selectivity index), TGI: 1.19
[14]
  GI50: 3.83 µM
  CC50: 90 µM
  MG_MID, TGI: 18.6 µM
  SI (selectivity index), GI50: 4.70
  SI (selectivity index), LC50: 0.91
  SI (selectivity index), TGI: 2.32
[15]
  GI50: 17.7 µM
  CC50: 74.3 µM
  MG_MID, TGI: 38.0 µM
  SI (selectivity index), GI50: 1.02
  SI (selectivity index), LC50: 1.10
  SI (selectivity index), TGI: 1.13
[16]
  GI50: 16.9 µM
  CC50: 80.1 µM
  MG_MID, TGI: 43.3 µM
  SI (selectivity index), GI50: 1.07
  SI (selectivity index), LC50: 1.02
  SI (selectivity index), TGI: 1.00
[17]
  GI50: 25.9 µM
  CC50: 83 µM
  MG_MID, TGI: 44.8 µM
  SI (selectivity index), GI50: 0.69
  SI (selectivity index), LC50: 0.98
  SI (selectivity index), TGI: 0.96
[18]
  MG_MID, TGI: 59.7 µM
  GI50: 20.7 µM
  CC50: 77.8 µM
  SI (selectivity index), GI50: 0.87
  SI (selectivity index), LC50: 1.05
  SI (selectivity index), TGI: 0.72
[19]; Homo sapiens
  GI50: 14.9 µM
[19]
  SI (selectivity index), GI50: 1.21
  SI (selectivity index), LC50: 1.09
  SI (selectivity index), TGI: 0.95
[20]
  MG_MID, TGI: 51.3 µM
  GI50: 17.5 µM
  CC50: 90.2 µM
  SI (selectivity index), GI50: 1.03
  SI (selectivity index), LC50: 0.91
  SI (selectivity index), TGI: 0.84
